Results on three compounds are retold here after patent publication US20080255498A1, “Sensitizer Solutions, Systems, and Methods of Use” (priority 2005, published 2008).

The data set can be described thus: Spectral absorption of light of sensitizer solutions (FIG. 2A, 2B). The class given is physicochemical. An excerpt:
FIG. 2A is a graphic representation of spectral absorption of light for two embodiments of the sensitizer solution plotting absorbance versus wavelength in nm.
FIG. 2B is a graphic representation of the spectral absorption of light for four embodiments of the sensitizer solution plotting absorbance versus wavelength in nm.
FIGS. 2A and 2B illustrate that the sensitizer solution 12 has an electromagnetic energy absorption level dependent on the frequency (i.e., wavelength) of the electromagnetic energy. […] See U.S. Pat. No. 6,561,808 by Neuberger.

`C=Cc1c(C)c2cc3nc(c(CC(=O)O)c4[nH]c(cc5nc(cc1[nH]2)C(C)=C5CC)c(C)c4C(=O)O)[C@@H](CCC(=O)O)[C@@H]3C` [chlorin e6]: the “absorption spectrum primary peak” value is “about 665 nm”, the “absorption spectrum secondary peak” value is on record as “about 575 nm” and the “absorption spectrum tertiary peak” value was “about 515 nm”.
With bacteriochlorin a, the “absorption spectrum primary peak” value is listed as “about 765 nm” and the “absorption spectrum secondary peak” value is recorded as “about 605 nm”.
On to silicon naphthalocyanine, for which the “absorption spectrum primary peak” value was “about 773 nm”, the “absorption spectrum secondary peak” value is listed as “about 690 nm” and the “absorption spectrum tertiary peak” value is listed as “about 735 nm”.
